Results: the NIST ThermoML archive (doi:10.1021/acs.jced.9b00507)
Numbers after ± are expanded uncertainties.

Assay: xn = mol fraction of the nth substance listed
Conditions: 100 kPa, Liquid; for viscosity: Concentric cylinders viscometry; for mass density: Vibrating tube method

CCCCCCn1cc[n+](C)c1.O=[N+]([O-])[O-] [1-hexyl-3-methylimidazolium nitrate] + CCCCCCO
Conditions	mass density [kg/m3]	viscosity [mPa·s]
293.15 K, x1 = 0.0816	859 ± 1.3	12.97 ± 1.1
293.15 K, x1 = 0.1604	894.1 ± 1.3	24.15 ± 2
293.15 K, x1 = 0.2391	925.7 ± 1.3	39.81 ± 3.2
293.15 K, x1 = 0.3502	965.4 ± 1.2	76.74 ± 6.2
293.15 K, x1 = 0.4409	994.2 ± 1.2	123.03 ± 10
293.15 K, x1 = 0.5592	1027.7 ± 1.2	207.01 ± 17
293.15 K, x1 = 0.6508	1050.9 ± 1.2	296.48 ± 25
293.15 K, x1 = 0.7395	1071.2 ± 1.2	414.95 ± 35
293.15 K, x1 = 0.8502	1093.7 ± 1.3	581.11 ± 50
293.15 K, x1 = 0.9391	1110 ± 1.4	707.52 ± 62
293.15 K, x1 = 1	1120.3 ± 1.4	804.17 ± 70
298.15 K, x1 = 0.0816	855.2 ± 1.3	8.79 ± 0.72
298.15 K, x1 = 0.1604	890.1 ± 1.3	14.35 ± 1.2
298.15 K, x1 = 0.2391	921.7 ± 1.3	22.49 ± 1.8
298.15 K, x1 = 0.3502	961.4 ± 1.2	39.81 ± 3.2
298.15 K, x1 = 0.4409	990.2 ± 1.2	63.83 ± 5.2
298.15 K, x1 = 0.5592	1023.9 ± 1.2	109.9 ± 9
298.15 K, x1 = 0.6508	1047.2 ± 1.2	167.11 ± 14
298.15 K, x1 = 0.7395	1067.7 ± 1.2	243.78 ± 20
298.15 K, x1 = 0.8502	1090.5 ± 1.3	367.28 ± 31
298.15 K, x1 = 0.9391	1107.1 ± 1.4	473.22 ± 40
298.15 K, x1 = 1	1117.5 ± 1.4	545.25 ± 47
303.15 K, x1 = 0.0816	851.5 ± 1.3	6.53 ± 0.53
303.15 K, x1 = 0.1604	886.2 ± 1.3	10 ± 0.81
303.15 K, x1 = 0.2391	917.6 ± 1.3	15.42 ± 1.2
303.15 K, x1 = 0.3502	957.2 ± 1.2	26 ± 2.1
303.15 K, x1 = 0.4409	986.1 ± 1.2	39.54 ± 3.2
303.15 K, x1 = 0.5592	1019.9 ± 1.2	66.53 ± 5.4
303.15 K, x1 = 0.6508	1043.3 ± 1.2	101.16 ± 8.2
303.15 K, x1 = 0.7395	1063.9 ± 1.2	149.28 ± 12
303.15 K, x1 = 0.8502	1087 ± 1.3	233.88 ± 19
303.15 K, x1 = 0.9391	1103.7 ± 1.4	315.5 ± 26
303.15 K, x1 = 1	1114.3 ± 1.4	369.14 ± 31
308.15 K, x1 = 0.0816	847.7 ± 1.3	5.01 ± 0.4
308.15 K, x1 = 0.1604	882.4 ± 1.3	6.95 ± 0.56
308.15 K, x1 = 0.2391	913.8 ± 1.3	9.64 ± 0.78
308.15 K, x1 = 0.3502	953.4 ± 1.2	15.85 ± 1.3
308.15 K, x1 = 0.4409	982.3 ± 1.2	23.71 ± 1.9
308.15 K, x1 = 0.5592	1016.1 ± 1.2	40.36 ± 3.3
308.15 K, x1 = 0.6508	1039.6 ± 1.2	63.1 ± 5.1
308.15 K, x1 = 0.7395	1060.2 ± 1.2	95.67 ± 7.8
308.15 K, x1 = 0.8502	1083.5 ± 1.3	157.61 ± 13
308.15 K, x1 = 0.9391	1100.4 ± 1.4	216.41 ± 18
308.15 K, x1 = 1	1111.1 ± 1.4	257.59 ± 21
313.15 K, x1 = 0.0816	843.9 ± 1.3	3.92 ± 0.32
313.15 K, x1 = 0.1604	878.5 ± 1.3	5.11 ± 0.41
313.15 K, x1 = 0.2391	909.9 ± 1.3	6.87 ± 0.55
313.15 K, x1 = 0.3502	949.6 ± 1.2	10.64 ± 0.86
313.15 K, x1 = 0.4409	978.5 ± 1.2	15.42 ± 1.2
313.15 K, x1 = 0.5592	1012.3 ± 1.2	25.7 ± 2.1
313.15 K, x1 = 0.6508	1035.8 ± 1.2	40.74 ± 3.3
313.15 K, x1 = 0.7395	1056.5 ± 1.2	63.17 ± 5.1
313.15 K, x1 = 0.8502	1079.9 ± 1.3	107.2 ± 8.7
313.15 K, x1 = 0.9391	1096.9 ± 1.4	151.34 ± 12
313.15 K, x1 = 1	1107.8 ± 1.4	185.67 ± 15
318.15 K, x1 = 0.0816	840.1 ± 1.3	3.2 ± 0.26
318.15 K, x1 = 0.1604	874.7 ± 1.3	3.92 ± 0.32
318.15 K, x1 = 0.2391	906.1 ± 1.3	5.06 ± 0.41
318.15 K, x1 = 0.3502	945.8 ± 1.2	7.53 ± 0.61
318.15 K, x1 = 0.4409	974.8 ± 1.2	10.79 ± 0.87
318.15 K, x1 = 0.5592	1008.7 ± 1.2	18.71 ± 1.5
318.15 K, x1 = 0.6508	1032.2 ± 1.2	29.04 ± 2.4
318.15 K, x1 = 0.7395	1053.1 ± 1.2	46.03 ± 3.7
318.15 K, x1 = 0.8502	1076.5 ± 1.3	78.87 ± 6.4
318.15 K, x1 = 0.9391	1093.7 ± 1.4	114.4 ± 9.3
318.15 K, x1 = 1	1104.7 ± 1.4	140.18 ± 11
323.15 K, x1 = 0.0816	836.2 ± 1.3	2.63 ± 0.21
323.15 K, x1 = 0.1604	870.7 ± 1.3	3.1 ± 0.25
323.15 K, x1 = 0.2391	902.2 ± 1.3	3.84 ± 0.31
323.15 K, x1 = 0.3502	942 ± 1.2	5.55 ± 0.45
323.15 K, x1 = 0.4409	971 ± 1.2	8.02 ± 0.65
323.15 K, x1 = 0.5592	1005 ± 1.2	13.49 ± 1.1
323.15 K, x1 = 0.6508	1028.7 ± 1.2	21.63 ± 1.8
323.15 K, x1 = 0.7395	1049.5 ± 1.2	36.13 ± 2.9
323.15 K, x1 = 0.8502	1073.1 ± 1.3	63.1 ± 5.1
323.15 K, x1 = 0.9391	1090.4 ± 1.4	91.12 ± 7.4
323.15 K, x1 = 1	1101.6 ± 1.4	110.94 ± 9
